Results as given in ChEMBL document CHEMBL5512662, “Illuminating Dark Chemical Matter Using the Cell Painting Assay” (J Med Chem, 2024).

Experiments:
Shh Light II = assay: Inhibition of purmorphamine-induced osteoblast differentiation in mouse Shh Light II cells preincubated for 1 hr followed by purmorphamine addition for 48 hrs by luminescence based reporter gene assay; format: functional, cell-based
C3H 10T1/2 = assay: Inhibition of purmorphamine-induced osteoblast differentiation in mouse C3H 10T1/2 cells assessed as reduction in alkaline phosphatase level preincubated for 1 hr followed by purmorphamine addition for 4 days by luminescence based assay; format: functional, cell-based

| Compound | IC50 (Shh Light II) | IC50 (C3H 10T1/2) |
| --- | --- | --- |
| COCCNC(=O)C1CCN(C(=O)c2cc3sccc3n2Cc2ccc(F)cc2)CC1 | 470 nM | 90 nM |
| CCOc1ccc(Oc2nc(Nc3ccc(C)cc3)nc(N(C)C)n2)nn1 | – | 320 nM |
| COc1ccccc1CCNC(=O)CCCn1nc(C)c2c(C)n(-c3ccc(C)cc3)nc2c1=O | 1400 nM | 540 nM |
| CN(CCCNC(=O)c1nn(C)c2c1CS(=O)(=O)c1ccccc1-2)Cc1ccccc1 | 2170 nM | 310 nM |
